Counter-ions that a name gives are not always drawn.
Experiment: chemical stability of tenofovir DF in the dosage form (stability studies)
Type: physicochemical

CC(C)OC(=O)OCOP(=O)(CO[C@H](C)Cn1cnc2c(N)ncnc21)OCOC(=O)OC(C)C [tenofovir DF, tenofovir disoproxil fumarate]
compatibility of efavirenz formulation with tenofovir DF (attributed to the surfactant sodium lauryl sulfate in the efavirenz portion): unexpectedly incompatible | stability of tenofovir DF in preparation (increased proportion of excipients, wet granulation of the three API combination): highly unstable | stability of tenofovir DF in combination tablet (three drugs in unitary, essentially homogeneous composition manufactured by wet granulation, stability studies): highly unstable and rapidly degraded

— patent US9018192B2, “Unitary pharmaceutical dosage form” (Bristol-Myers Squibb & Gilead Sciences, LLC, priority 2005, dated 2015)
